# Tests used:
# [1] = pH dependency of the absorption; assay type: physicochemical; conditions: reagent solution adjusted to pH 7.1, pH increased and decreased stepwise, FIG. 2, versus 4-nitrophenol
# Method: Determination of α-amylase, pH dependency of the absorption
# Under the same conditions as in Example 1, there are measured the extinctions of two reagent solutions adjusted to a pH value of 7.1, one of which contains 2-chloro-4-nitrophenol, the other 4-nitrophenol.
# [2] = optimum pH conditions of the α-amylase determination (6.8-7.1); cited from earlier work
# α-amylase = experiment: determination of α-amylase, time-reaction curve with α-glucosidase and β-glucosidase, extinction at 405 nm; assay type: biochemical; conditions: for extinction change per minute: substrate in α-amylase determination, FIG. 1, 405 nm, 30° C.
# Method: For the determination of α-amylase, the reagent solution of substrate, α-glucosidase, β-glucosidase, buffer and activation agent is mixed with the sample solution and the extinction recorded at 405 nm e.g. at 30° C. Typically, 0.2-3.0 ml of reagent is mixed with 1.0-50 μl of sample for ordinary α-amylase concentrations.
# Determination of α-amylase
# A reagent composition is prepared which, per ml. of test volume, contains the following components: […]
# 2-chloro-4-nitrophenyl-β,D-
# phosphate buffer (pH 6.8)
# sodium chloride 0.05 Mol/l.
# carrying out of the test: 1 ml. reagent + 10 μl. sample
structure (smiles),measurement,setting,value
O=[N+]([O-])c1ccc(O)c(Cl)c1 [2-chloro-4-nitrophenol],influence of change of the pH value on the extinction,[1],less strongly influenced by change of the pH value
O=[N+]([O-])c1ccc(O)cc1 [p-nitrophenol],liberated p-nitrophenol present as colored phenolate anion,[2],about 50%
"O=[N+]([O-])c1ccc(O[C@@H]2O[C@H](CO)[C@@H](O[C@H]3O[C@H](CO)[C@@H](O[C@H]4O[C@H](CO)[C@@H](O[C@H]5O[C@H](CO)[C@@H](O[C@H]6O[C@H](CO)[C@@H](O[C@H]7O[C@H](CO)[C@@H](O[C@H]8O[C@H](CO)[C@@H](O)[C@H](O)[C@H]8O)[C@H](O)[C@H]7O)[C@H](O)[C@H]6O)[C@H](O)[C@H]5O)[C@H](O)[C@H]4O)[C@H](O)[C@H]3O)[C@H](O)[C@H]2O)c(Cl)c1 [2-chloro-4-nitrophenyl-β,D-maltoheptaoside]",increase of the change of absorption (Δ E/min.),"α-amylase; line I in comparison with line III (4-nitrophenyl-α,D-maltoheptaoside), FIG. 1, Example 1",~ 0.05
same,factor of increase of extinction change per minute,"α-amylase; relative to 4-nitrophenyl-α,D-maltoheptaoside, FIG. 1",3
same,extinction change per minute,α-amylase,above 0.075
"O=[N+]([O-])c1ccc(O[C@H]2O[C@H](CO)[C@@H](O[C@H]3O[C@H](CO)[C@@H](O[C@H]4O[C@H](CO)[C@@H](O[C@H]5O[C@H](CO)[C@@H](O[C@H]6O[C@H](CO)[C@@H](O[C@H]7O[C@H](CO)[C@@H](O[C@H]8O[C@H](CO)[C@@H](O)[C@H](O)[C@H]8O)[C@H](O)[C@H]7O)[C@H](O)[C@H]6O)[C@H](O)[C@H]5O)[C@H](O)[C@H]4O)[C@H](O)[C@H]3O)[C@H](O)[C@H]2O)cc1 [4-nitrophenyl-α,D-maltoheptaoside, reference compound]",extinction change per minute,α-amylase,0.024
"O=[N+]([O-])c1ccc(O[C@H]2O[C@H](CO)[C@@H](O[C@H]3O[C@H](CO)[C@@H](O[C@H]4O[C@H](CO)[C@@H](O[C@H]5O[C@H](CO)[C@@H](O[C@H]6O[C@H](CO)[C@@H](O[C@H]7O[C@H](CO)[C@@H](O[C@H]8O[C@H](CO)[C@@H](O)[C@H](O)[C@H]8O)[C@H](O)[C@H]7O)[C@H](O)[C@H]6O)[C@H](O)[C@H]5O)[C@H](O)[C@H]4O)[C@H](O)[C@H]3O)[C@H](O)[C@H]2O)c(Cl)c1 [2-chloro-4-nitrophenyl-α,D-maltoheptaoside, reference compound]",extinction change per minute,α-amylase,0.036
